Data taken from paper PMC11720353, “Clove Essential Oil as a Source of Antitumoral Compounds Capable of Crossing the Blood–Brain Barrier: A Focus on the Effects of β-Caryophyllene and Eugenol in a Glioblastoma Cell Line” (International Journal of Molecular Sciences, 2024).
Where two headings read alike, the source gives them in different places.

What was measured:
U87 cells [1] = assay: Metabolic activity (Alamar blue) assay and HSA synergy analysis; assay type: cell-based, human; conditions: EU 2.5, 25, 200 µM or BCA 1.25, 12.5, 125 µM alone, 24-72 h
Experimental: To evaluate the cytotoxic/antiproliferative potential of BCA and/or EU, the U87 and HMC3 cells were seeded, in triplicate, into 48-well culture plates (4 × 10^4 cells/well). After 24 h, the medium was replaced, and the cells were treated either with the vehicle (ethanol) or with different concentrations of EO single molecules, diluted in ethanol alone ([…]; BCA: 1.25 µM, µM, 125 µM) or in combination (EU 2 µM and BCA 1.25 µM; EU 20 µM and BCA 12.5 µM; and EU 200 µM and BCA 125 µM) in order to evaluate the possible synergistic effects. The final concentration of ethanol in the cell medium was kept lower than 0.1%. Non-treated cells were considered the control condition. Metabolic activity was evaluated using a modified Alamar blue® assay, as previously described. […] After 2 h of incubation at 5% CO2 and 37 °C, the absorbance was read at 570 and 600 nm in a BioTeck (BioTek Instruments, Inc., Winooski, VT, USA). The absorbance results were obtained using the Gen5 program. The metabolic activity was then calculated by the following equation: Metabolicactivity %=A570−A600 oftreated cells/A570−A600 ofcontrol cells×100 All data were analyzed using the software GraphPad Prism v.9.00 (GraphPad Software, San Diego, CA, USA). All in vitro experiments were performed in triplicate, and the acquired results were expressed as means ± SEM. […]

U87 cells [2] = assay: Clonogenic cell survival assay; assay type: cell-based, human; conditions: EU 200 µM, BCA 125 µM, alone or in combination, 14 days
Experimental: An evaluation of the antiproliferative effect via clonogenic assay on the tumoral U87 cells was performed using an adapted protocol from the previously described procedure. Briefly, U87 cells (0.8 × 10^3 cells/well) were seeded into 6-well plates and incubated for 24 h. After the incubation, based on the results obtained from the cell viability assay and synergistic score, the cells were treated either with EO single compounds diluted in ethanol alone (EU 200 µM and BCA 125 µM) or in combination for 14 days with the media being changed every 2/3 days. The cells without treatment were considered the control condition. Following the incubation, the cells were washed with PBS, fixed with paraformaldehyde (PFA) and stained with 0.1% crystal violet solution. The number of colonies was counted by microscopy, and the surviving fraction (SF) was calculated as the mean colonies/number of cells seeded.

U87 cells [3] = assay: Cell death assay (Annexin V/PI, flow cytometry); assay type: cell-based, human; conditions: EU 200 µM, BCA 125 µM, alone or in combination, 24 h
Experimental: (§4) HMC3 and U87 cells were seeded in duplicate into 12-well plates (10 × 10^4 cells/well). After 24 h of incubation at 37 °C and 5% CO2, the medium was replaced, and the cells were treated either with EU (200 µM) or BCA (125 µM), alone and in combination (EU 200 µM + BCA 125 µM). Following the 24 h treatment, the cells were co-stained with AV-APC and PI according to the manufacturer’s protocol (Biolegend, San Diego, CA, USA). Briefly, the cells were resuspended in binding buffer (100 µL) and incubated with AV-APC solution (5 µL) and PI solution (2 µL) for 15 min at room temperature. Then, the cells were diluted in a binding buffer (400 µL). A six-parameter, four-color FACSCalibur flow cytometer (Becton Dickinson, San Jose, CA, USA) was used, and at least 10,000 events were collected by acquisition using CellQuest software (Becton Dickinson, San Jose, CA, USA). The results were analyzed with the Paint-a-Gate software and expressed in percentage (%).

HMC3 cells [4] = assay: Cell death assay (Annexin V/PI, flow cytometry); assay type: cell-based, human; conditions: EU 200 µM, BCA 125 µM, alone or in combination, 24 h
Experimental: as §4

HMC3 cells [5] = assay: Cell cycle analysis (PI/RNase, flow cytometry); assay type: cell-based, human; conditions: EU 200 µM, BCA 125 µM, alone or in combination, 24 h
Experimental: (§1) Analysis of the effect of BCA and/or EU on the cell cycle was assessed with flow cytometry using propidium iodide (PI)/RNase solution, according to the manufacturer’s protocol (Immunostep, Salamanca, Spain), as previously described. HMC3 and U87 cells (30 × 10^4 cells/well) were seeded in triplicate into 6-well plates and incubated for 24 h at 37 °C and 5% CO2. Thereafter, the cells were treated either with EU (200 µM) or BCA (125 µM) alone or in combination (EU 200 µM + BCA 125 µM). After 24 h, the cells were detached and fixed in 70% ethanol for 60 min at 4 °C, washed twice with PBS, and then stained with 500 µL of PI/RNase solution. The results were acquired using CellQuest software and expressed as the calculated percentage of the cell population in each cell cycle phase (G0/G1, S and G2/M) according to the PI intensity.

U87 cells [6] = assay: Cell cycle analysis (PI/RNase, flow cytometry); assay type: cell-based, human; conditions: EU 200 µM, 24 h
Experimental: as §1

HMC3 cells [7] = assay: Quantitative real-time PCR of mRNA levels; assay type: cell-based, human; conditions: 24 h
Experimental: (§2) An analysis of the genes involved in angiogenesis, tumor progression and proliferation were performed. In particular, we analyzed the genes involved in the cell cycle and in three different apoptotic pathways: B-cell lymphoma-2 (BCL2), Bcl-2-like protein 1 (BCL2L1), Bcl-2 Associated X-protein (BAX), BCL2 Antagonist/Killer 1 (BAK-1) and Caspase 9 (CASP9) as the key genes of the intrinsic mitochondrial pathway; and Phosphatase and tensin homolog (PTEN), Tumor protein p53 (TP53), Murine double minute 2 (MDM2), Cyclin-dependent kinase 4 (CDK4) and Vascular endothelial growth factor A (VEGFA) mRNA levels were assessed by quantitative real-time PCR (qRT-PCR). HMC3 and U87 cells were seeded with a density of 1 × 10^6 cells per well and incubated for 24 h at 37 °C and 5% CO2. Thereafter, the cells were treated either with EU (200 μM) or BCA (125 μM) alone and in combination (EU 200 μM + BCA 125 μM). Total RNA was extracted using the TripleXtractor solution (GRISP, Lisbon, Portugal) according to the manufacturer's protocol. RNA was converted into cDNA through the […] Synthesis Supermix (GRISP, Lisbon, Portugal). Each optimized reaction was performed using […] SYBR Green Mastermix 2X with […], Lisbon, Portugal) and subjected to the amplification protocol described by the manufacturer, using a melting temperature of 60 °C. The relative gene expression was determined by the 2^-ΔΔCt method and normalized on Glyceraldehyde-3-Phosphate Dehydrogenase (GAPDH), which was the endogenous reference and relative to the untreated cells (control condition).

U87 cells [8] = assay: Quantitative real-time PCR of mRNA levels; assay type: cell-based, human; conditions: 24 h
Experimental: as §2

HMC3 cells [9] = assay: Inflammatory cytokines in conditioned media (Luminex/BioPlex); assay type: cell-based, human; conditions: EU 200 µM, BCA 125 µM, alone or in combination, 24 h
Experimental: (§3) In order to determine the impact of BCA and/or EU on inflammatory cytokines levels, cytokine expression analyses (L-6, IL-4, IL-8 and TNF-α) were performed using a customized detection panel purchased from Bio-techne (Minneapolis, MN, USA). The cells were seeded, in triplicate, into 24-well culture plates (8 × 10^4 cells/well). After 24 h, the medium was replaced and the cells were treated either with the vehicle (ethanol) or with different concentrations of EO single compounds alone (EU: 2 µM, 20 µM, 200 µM; and BCA: 1.25 µM, 12.5 µM, 125 µM) or in combination (EU 2 µM + BCA 1.25 µM; EU 20 µM + BCA 12.5 µM; and EU 200 µM + BCA 125 µM). The final concentration of ethanol in the cell medium was kept lower than 0.1%. The ethanol 0.1%-treated cells were considered the control condition. After the 24 h treatment, supernatants were collected and centrifuged at 4,000× g for 10 min, and the samples were analyzed with the BioPlex 200 instrument (BioRad®, Hercules, CA, USA) following the manufacturer’s protocol.

U87 cells [10] = assay: as above; assay type: cell-based, human; conditions: EU 200 µM, BCA 125 µM, alone or in combination, 24 h
Experimental: as §3

[11] = cited from earlier work
[12] = EU 200 µM, BCA 125 µM, alone or in combination

SMILES: C=CCc1ccc(O)c(OC)c1 [EU, 4-allyl-2-methoxyphenol]
- reduction in metabolic activity, single compounds (U87 cells [1]): No reduction
- decrease of clonal growth / colony formation with respect to control (U87 cells [2]): −59.5%
- live (viable) cells, change with respect to control (U87 cells [3]): did not affect
- cell viability (HMC3 cells [4]): did not affect
- effect on cell cycle (HMC3 cells [5]): no effects
- effect on cell cycle (U87 cells [6]): no significant effect
- PTEN mRNA expression, change vs control (HMC3 cells [7]; EU 200 µM or BCA 125 µM): +42.2%
- BAK1 mRNA expression, change vs control (HMC3 cells [7]; [12]): no effect
- BAX mRNA expression, change vs control (HMC3 cells [7]; [12]): −29.7%
- BCL2L1 mRNA expression, change vs control (HMC3 cells [7]; [12]): −34.1%
- BCL2 mRNA expression, change vs control (HMC3 cells [7]; [12]): −61.2%
- CASP9 mRNA expression, change vs control (HMC3 cells [7]; [12]): no effect
- CDK4 mRNA levels, change vs control (HMC3 cells [7]; [12]): no effects
- MDM2 mRNA expression, change vs control (HMC3 cells [7]; [12]): −61.2%
- TP53 mRNA expression, change vs control (HMC3 cells [7]; [12]): no effect
- VEGFA mRNA expression, change vs control (HMC3 cells [7]; [12]): −31.5%
- PTEN mRNA expression, change vs control (U87 cells [8]; EU 200 µM or BCA 125 µM): +86.4%
- BAK1 mRNA expression, change vs control (U87 cells [8]; [12]): +32.3%
- BAX mRNA expression, change vs control (U87 cells [8]; [12]): +50.3%
- BCL2L1 mRNA expression, change vs control (U87 cells [8]; [12]): −42.2%
- BCL2 mRNA expression, change vs control (U87 cells [8]; [12]): −45.6%
- CASP9 mRNA expression, change vs control (U87 cells [8]; [12]): no effect
- MDM2 mRNA expression, change vs control (U87 cells [8]; [12]): no effect
- TP53 mRNA expression, change vs control (U87 cells [8]; [12]): +143.6%
- VEGFA mRNA expression, change vs control (U87 cells [8]; [12]): no effect
- CDK4 mRNA levels, change vs control (U87 cells [8]; EU 200 µM, BCA 125 µM, alone or in combination, normalized to GAPDH): −49.1%
- IL-4 levels, change vs control (HMC3 cells [9]): −26%
- IL-4 levels, change vs control (U87 cells [10]): −31%
- IL-6 secretion, change vs control (U87 cells [10]): None of the treatments modulated
- IL-8 secretion, change vs control (U87 cells [10]): unaffected
- ability to cross the blood–brain barrier ([11]; rat, in vivo): high aptitude to cross the blood–brain barrier

SMILES: O=C/C=C/c1ccccc1 [cinnamaldehyde]
- ability to permeate the CNS ([11]; rat, not told, po): inability to permeate the CNS

SMILES: C=C(C)[C@H]1CC=C(C)CC1 [limonene]
- ability to permeate the CNS ([11]; after oral administration): inability to permeate the CNS
